In assay [1] the test system is HepG2 human liver cancer cell lines. Nature of the assay: MTT cytotoxicity assay. Type of assay: cell-based. The settings on record: HepG2, 24h exposure, versus control cell viability taken as 100%, read-out: toxicity. How it is done:
(§1) To assess if the produced singlet oxygen can induce cytotoxicity in tumor cells, toxicity assays were performed in vitro with compound 1 in HepG2 human liver cancer cell lines. Cytotoxicity of compound 1 was evaluated through the MTT and LDH assay, which has been widely used as a colorimetric approach based on the activity of mitochondrial dehydrogenase enzyme in cells. MTT test was performed after an incubation of 24h and 48h. LDH release was monitored following an incubation of 24h and 48h with different concentrations of Compound 1 (1, 10, 20, 50 and 100 µM). Percent viability was obtained by comparing with control cell viability, considered as 100%. Data represents the mean ± SD of measurements of three independent experiments. Results of the one-way ANOVA factorial analysis. […] Thus, compound 1 was indeed able to induce cytotoxicity without the need of external excitation sources.
Background: Tetrazolium assays rely on reduction of a dye to a coloured formazan, in cell work by metabolically active cells.

For assay [2] the test system is unchanged. The experiment in a line: LDH release cytotoxicity assay. Format: cell-based. The note with it: HepG2, 24h exposure, read-out: toxicity. How it is done: as §1
(In general: LDH in the medium is a marker of cell lysis.)

Assay [3] is described as follows: Singlet oxygen formation by quenching of ABDA fluorescence. The note with it: increasing concentrations of compound (0-15 microMolar); no external excitation; sodium azide prevented the quenching. How it is done: The production of reactive triplet states by compound 1 was determined by assessing the formation of singlet oxygen. This latter species is formed by energy transfer from a triplet molecule to oxygen. To this end, 9,10-anthracenediyl-bis(methylene)dimalonic acid (ABDA) was added to a solution containing compound 1, as the fluorescence of ABDA is quenched by the formation of singlet oxygen. […] To confirm that the quenching of ABDA's fluorescence was due to the production of singlet oxygen, sodium azide was added to solutions containing ABDA and compound 1. Sodium azide is a known quencher of singlet oxygen. As expected, the addition of sodium azide prevented the quenching of the fluorescence emitted by ABDA (Figure 12).

Take `Cc1nc2c(Br)[nH]c(-c3ccc(O)cc3)cn-2c1=O` [Compound 1, 8-bromo-6-(4-hydroxyphenyl)-2-methylimidazo[1,2-a]pyrazin-3(7H)-one]: the cytotoxicity at 50 µM in assay [1] (50 µM) and in assay [2] (50 µM) was 15% each time. For the same molecule, the cytotoxicity at 100 µM in assay [1] (100 µM) and in assay [2] (100 µM) was 12% in each case. Also, the “fluorescence intensity of ABDA” value in assay [3] is given as “decreased significantly”.

For the origin of these results see patent publication EP3788116B1, “CHEMILUMINESCENT IMIDAZOPYRAZINONE-BASED PHOTOSENSITIZERS WITH AVAILABLE SINGLET AND TRIPLET EXCITED STATES” (Universidade do Porto, priority 2018, dated 2019).
